Measured values from ChEMBL document CHEMBL3297725, “Acridone alkaloids from Glycosmis chlorosperma as DYRK1A inhibitors” (J Nat Prod, 2014).

What was measured:
[1] = biological target: Cyclin-dependent kinase 1 (Homo sapiens, UniProt P06493); assay: Inhibition of CDK1 (unknown origin) assessed as inhibition of phosphate incorporation into substrate in presence of radiolabeled ATP
[2] = biological target: Cyclin-dependent kinase 5 (Homo sapiens, UniProt Q00535); assay: Inhibition of CDK5 (unknown origin) assessed as inhibition of phosphate incorporation into substrate in presence of radiolabeled ATP
[3] = biological target: Dual specificity tyrosine-phosphorylation-regulated kinase 1A (Homo sapiens, UniProt Q13627); assay: Inhibition of DYRK1A (unknown origin) assessed as inhibition of phosphate incorporation into substrate in presence of radiolabeled ATP
[4] = biological target: Glycogen synthase kinase-3 (Homo sapiens, UniProt P49840+P49841); assay: Inhibition of GSK3 (unknown origin) assessed as inhibition of phosphate incorporation into substrate in presence of radiolabeled ATP; assay type: protein assay
[5] = system: Casein kinase 1 delta/epsilon (Sus scrofa); assay: Inhibition of CK1 (porcine brain) assessed as inhibition of phosphate incorporation into substrate in presence of radiolabeled ATP
[6] = biological target: Dual specificity protein kinase CLK1 (Mus musculus) (UniProt P22518); assay: Inhibition of CLK1 (mouse recombinant) assessed as inhibition of phosphate incorporation into substrate in presence of radiolabeled ATP
[7] = biological target: Dual specificity protein kinase CLK1 (Mus musculus, UniProt P22518); assay: Inhibition of mouse recombinant GST-fused CLK1 expressed in Escherichia coli cells assessed as inhibition of phosphate incorporation using GRSRSRSRSRSR and [gamma-33P]ATP as substrate after 30 mins by scintillation counting analysis
[8] = biological target: Dual specificity tyrosine-phosphorylation-regulated kinase 1A (Rattus norvegicus, UniProt Q63470); assay: Inhibition of rat DYRK1A assessed as inhibition of phosphate incorporation using GRSRSRSRSRSR and [gamma-33P]ATP as substrate after 30 mins by scintillation counting analysis
[9] = Inhibition of CDK1/cyclin B in starfish oocytes assessed as inhibition of phosphate incorporation using histone 1 and [gamma-33P]ATP as substrate after 30 mins by scintillation counting analysis; parameters: species or system Patiria pectinifera
[10] = biological target: CDK2/Cyclin A2 (Homo sapiens, UniProt P24941); assay: Inhibition of CDK2/cyclin A (unknown origin); assay type: protein-complex assay
[11] = biological target: Cyclin-dependent kinase 5/CDK5 activator 1 (Homo sapiens, UniProt Q00535); assay: Inhibition of CDK5/p25 (unknown origin) assessed as inhibition of phosphate incorporation using histone 1 and [gamma-33P]ATP as substrate after 30 mins by scintillation counting analysis; assay type: protein-complex assay
[12] = biological target: CDK9/cyclin T1 (Homo sapiens, UniProt P50750); assay: Inhibition of CDK9/cyclin T (unknown origin); assay type: protein-complex assay
[13] = Inhibition of CK1 delta/epsilon in porcine brain assessed as inhibition of phosphate incorporation using RRKHAAIGpSAYSITA and [gamma-33P]ATP as substrate after 30 mins by scintillation counting analysis; parameters: species or system Sus scrofa
[14] = biological target: Dual specificity protein kinase CLK2 (Homo sapiens, UniProt P49760); assay: Inhibition of CLK2 (unknown origin)
[15] = biological target: Dual specificity protein kinase CLK3 (Homo sapiens, UniProt P49761); assay: Inhibition of CLK3 (unknown origin)
[16] = biological target: Dual specificity protein kinase CLK4 (Homo sapiens, UniProt Q9HAZ1); assay: Inhibition of CLK4 (unknown origin)
[17] = biological target: Dual specificity tyrosine-phosphorylation-regulated kinase 1B (Homo sapiens, UniProt Q9Y463); assay: Inhibition of DYRK1B (unknown origin)
[18] = biological target: T1, Dual specificity tyrosine-phosphorylation-regulated kinase 2 (Homo sapiens, UniProt Q92630); assay: Inhibition of DYRK2 (unknown origin)
T1 sequence (Q92630 whole entry): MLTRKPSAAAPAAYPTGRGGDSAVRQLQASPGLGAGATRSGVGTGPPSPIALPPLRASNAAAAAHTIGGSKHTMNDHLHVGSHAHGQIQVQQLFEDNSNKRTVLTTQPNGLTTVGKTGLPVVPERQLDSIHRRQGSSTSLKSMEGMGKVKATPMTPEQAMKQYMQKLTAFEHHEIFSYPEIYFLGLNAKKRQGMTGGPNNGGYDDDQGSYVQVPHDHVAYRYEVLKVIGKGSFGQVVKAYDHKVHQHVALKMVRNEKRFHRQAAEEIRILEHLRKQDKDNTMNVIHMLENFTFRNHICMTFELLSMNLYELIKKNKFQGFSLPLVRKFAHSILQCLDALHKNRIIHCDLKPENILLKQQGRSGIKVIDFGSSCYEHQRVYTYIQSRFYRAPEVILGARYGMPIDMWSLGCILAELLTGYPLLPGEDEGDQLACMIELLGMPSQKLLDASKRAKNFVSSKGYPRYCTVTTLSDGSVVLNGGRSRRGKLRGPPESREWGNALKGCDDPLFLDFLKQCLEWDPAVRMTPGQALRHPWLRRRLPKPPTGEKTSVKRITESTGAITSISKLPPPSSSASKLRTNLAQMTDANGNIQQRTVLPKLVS

[19] = biological target: T2, Dual specificity tyrosine-phosphorylation-regulated kinase 3 (Homo sapiens, UniProt O43781); assay: Inhibition of DYRK3 (unknown origin)
T2 sequence (O43781 whole entry): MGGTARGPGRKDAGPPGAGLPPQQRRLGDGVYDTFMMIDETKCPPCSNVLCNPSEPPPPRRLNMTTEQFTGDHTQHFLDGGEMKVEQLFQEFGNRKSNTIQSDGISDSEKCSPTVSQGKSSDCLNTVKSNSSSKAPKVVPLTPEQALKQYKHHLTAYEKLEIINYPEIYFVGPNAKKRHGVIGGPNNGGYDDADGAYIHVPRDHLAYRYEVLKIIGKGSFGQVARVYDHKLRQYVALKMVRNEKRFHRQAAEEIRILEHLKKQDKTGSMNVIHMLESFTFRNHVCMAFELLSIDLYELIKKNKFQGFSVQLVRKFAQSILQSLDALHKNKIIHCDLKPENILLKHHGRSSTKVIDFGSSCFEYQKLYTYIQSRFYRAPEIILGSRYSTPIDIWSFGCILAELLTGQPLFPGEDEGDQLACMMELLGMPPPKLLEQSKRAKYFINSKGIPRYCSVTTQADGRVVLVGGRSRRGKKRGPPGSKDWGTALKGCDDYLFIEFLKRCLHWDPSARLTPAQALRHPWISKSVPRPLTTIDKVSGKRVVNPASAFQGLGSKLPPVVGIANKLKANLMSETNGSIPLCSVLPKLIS

[20] = biological target: Glycogen synthase kinase-3 (Sus scrofa, UniProt B2LUN4+I6LNT8); assay: Inhibition of GSK3 alpha/beta in porcine brain assessed as inhibition of phosphate incorporation using YRRAAVPPSPSLSRHSSPHQSpEDEEE and [gamma-33P]ATP as substrate after 30 mins by scintillation counting analysis

Cyclin-dependent kinase 1, sequence (P06493 whole entry): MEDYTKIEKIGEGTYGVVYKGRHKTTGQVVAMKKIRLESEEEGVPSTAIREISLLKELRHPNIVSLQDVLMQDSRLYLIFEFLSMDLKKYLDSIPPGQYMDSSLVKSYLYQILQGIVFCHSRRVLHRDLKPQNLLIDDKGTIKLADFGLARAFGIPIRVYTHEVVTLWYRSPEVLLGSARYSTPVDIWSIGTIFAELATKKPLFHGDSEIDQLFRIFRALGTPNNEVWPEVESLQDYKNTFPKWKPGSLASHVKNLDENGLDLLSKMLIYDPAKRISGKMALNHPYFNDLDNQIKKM
Dual specificity protein kinase CLK1 (Mus musculus), sequence (P22518 whole entry, looked up, the tested form may be a part): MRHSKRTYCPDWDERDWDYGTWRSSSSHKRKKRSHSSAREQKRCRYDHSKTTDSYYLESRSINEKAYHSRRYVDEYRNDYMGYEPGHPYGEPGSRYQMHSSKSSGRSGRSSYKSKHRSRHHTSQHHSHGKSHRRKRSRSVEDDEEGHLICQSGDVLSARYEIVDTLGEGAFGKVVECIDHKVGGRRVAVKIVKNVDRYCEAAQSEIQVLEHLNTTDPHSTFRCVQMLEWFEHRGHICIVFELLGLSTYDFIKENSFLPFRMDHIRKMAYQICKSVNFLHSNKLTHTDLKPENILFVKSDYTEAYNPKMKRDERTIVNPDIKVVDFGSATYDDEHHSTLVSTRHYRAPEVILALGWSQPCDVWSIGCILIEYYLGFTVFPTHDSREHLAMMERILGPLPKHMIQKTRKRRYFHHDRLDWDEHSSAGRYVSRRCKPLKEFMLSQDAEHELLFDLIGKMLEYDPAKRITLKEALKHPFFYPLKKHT
Cyclin-dependent kinase 5, sequence (Q00535 whole entry): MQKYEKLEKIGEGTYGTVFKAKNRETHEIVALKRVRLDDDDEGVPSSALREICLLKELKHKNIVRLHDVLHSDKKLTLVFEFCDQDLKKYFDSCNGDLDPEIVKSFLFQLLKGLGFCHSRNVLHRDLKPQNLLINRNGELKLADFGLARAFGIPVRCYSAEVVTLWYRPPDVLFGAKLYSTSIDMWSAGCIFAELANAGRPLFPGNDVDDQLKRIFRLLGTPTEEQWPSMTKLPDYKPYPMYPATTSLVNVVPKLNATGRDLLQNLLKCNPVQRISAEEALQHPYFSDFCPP
Dual specificity tyrosine-phosphorylation-regulated kinase 1B, sequence (Q9Y463 whole entry): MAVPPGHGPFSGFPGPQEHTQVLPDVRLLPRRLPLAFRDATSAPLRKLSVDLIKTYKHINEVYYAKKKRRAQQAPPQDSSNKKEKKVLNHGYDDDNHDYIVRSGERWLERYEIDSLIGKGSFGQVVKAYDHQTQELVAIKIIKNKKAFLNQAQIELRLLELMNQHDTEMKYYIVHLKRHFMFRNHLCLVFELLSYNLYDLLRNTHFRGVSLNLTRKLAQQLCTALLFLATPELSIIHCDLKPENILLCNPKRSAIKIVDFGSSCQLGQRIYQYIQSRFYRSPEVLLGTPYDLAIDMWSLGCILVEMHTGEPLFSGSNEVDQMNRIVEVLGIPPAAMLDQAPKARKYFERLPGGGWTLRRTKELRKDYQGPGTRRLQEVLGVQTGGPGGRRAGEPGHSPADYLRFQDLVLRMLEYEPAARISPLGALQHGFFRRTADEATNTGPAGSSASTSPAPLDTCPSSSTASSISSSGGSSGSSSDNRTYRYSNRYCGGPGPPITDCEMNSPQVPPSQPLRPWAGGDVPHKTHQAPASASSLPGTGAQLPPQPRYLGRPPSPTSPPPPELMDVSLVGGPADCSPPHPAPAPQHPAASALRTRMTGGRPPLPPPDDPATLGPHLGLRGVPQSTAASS
Dual specificity protein kinase CLK1, sequence (P22518 whole entry, the tested form may be a part): as the sequence (P22518 whole entry, looked up, the tested form may be a part) above
CDK9/cyclin T1, sequence (O60563 whole entry): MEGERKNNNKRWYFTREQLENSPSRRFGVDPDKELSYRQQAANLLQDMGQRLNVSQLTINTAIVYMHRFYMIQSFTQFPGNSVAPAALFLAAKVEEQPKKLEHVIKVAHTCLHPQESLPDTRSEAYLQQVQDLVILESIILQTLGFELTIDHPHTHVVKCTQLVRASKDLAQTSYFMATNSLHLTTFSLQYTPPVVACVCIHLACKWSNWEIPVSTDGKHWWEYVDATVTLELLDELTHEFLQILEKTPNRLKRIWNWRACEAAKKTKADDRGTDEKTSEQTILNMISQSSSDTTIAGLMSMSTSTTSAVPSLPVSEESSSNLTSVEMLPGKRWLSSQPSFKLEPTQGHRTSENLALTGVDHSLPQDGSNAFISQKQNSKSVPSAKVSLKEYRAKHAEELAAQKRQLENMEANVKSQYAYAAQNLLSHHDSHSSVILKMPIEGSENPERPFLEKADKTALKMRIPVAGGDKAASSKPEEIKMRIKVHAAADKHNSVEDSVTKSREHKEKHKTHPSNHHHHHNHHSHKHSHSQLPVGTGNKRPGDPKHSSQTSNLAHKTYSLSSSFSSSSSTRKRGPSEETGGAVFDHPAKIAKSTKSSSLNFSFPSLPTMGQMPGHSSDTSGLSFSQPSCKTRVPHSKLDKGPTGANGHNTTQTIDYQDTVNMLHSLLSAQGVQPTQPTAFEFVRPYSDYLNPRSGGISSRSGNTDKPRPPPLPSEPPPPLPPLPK
CDK9/cyclin T1, sequence (P50750 whole entry): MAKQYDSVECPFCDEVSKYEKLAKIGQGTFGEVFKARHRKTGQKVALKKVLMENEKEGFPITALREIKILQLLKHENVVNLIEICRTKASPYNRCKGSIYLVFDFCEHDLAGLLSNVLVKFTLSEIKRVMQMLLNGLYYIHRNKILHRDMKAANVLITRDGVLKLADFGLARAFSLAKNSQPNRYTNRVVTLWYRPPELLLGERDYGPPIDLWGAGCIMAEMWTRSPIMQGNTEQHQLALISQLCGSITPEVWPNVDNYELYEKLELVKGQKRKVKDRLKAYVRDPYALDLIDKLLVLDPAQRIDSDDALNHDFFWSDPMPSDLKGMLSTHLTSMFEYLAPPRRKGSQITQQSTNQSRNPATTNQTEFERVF
Dual specificity protein kinase CLK4, sequence (Q9HAZ1 whole entry): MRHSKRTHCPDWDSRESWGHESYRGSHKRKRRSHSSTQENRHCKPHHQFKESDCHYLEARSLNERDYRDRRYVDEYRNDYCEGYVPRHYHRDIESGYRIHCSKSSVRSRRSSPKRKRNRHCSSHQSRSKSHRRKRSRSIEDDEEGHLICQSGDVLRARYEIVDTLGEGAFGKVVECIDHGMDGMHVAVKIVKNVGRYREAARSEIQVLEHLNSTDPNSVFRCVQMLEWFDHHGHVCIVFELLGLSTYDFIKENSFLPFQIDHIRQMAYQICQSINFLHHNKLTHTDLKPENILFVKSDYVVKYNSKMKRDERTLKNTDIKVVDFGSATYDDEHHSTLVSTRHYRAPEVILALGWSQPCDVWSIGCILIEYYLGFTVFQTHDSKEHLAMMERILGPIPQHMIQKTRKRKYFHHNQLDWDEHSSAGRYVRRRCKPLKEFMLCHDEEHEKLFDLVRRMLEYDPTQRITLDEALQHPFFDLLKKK
Dual specificity protein kinase CLK2, sequence (P49760 whole entry): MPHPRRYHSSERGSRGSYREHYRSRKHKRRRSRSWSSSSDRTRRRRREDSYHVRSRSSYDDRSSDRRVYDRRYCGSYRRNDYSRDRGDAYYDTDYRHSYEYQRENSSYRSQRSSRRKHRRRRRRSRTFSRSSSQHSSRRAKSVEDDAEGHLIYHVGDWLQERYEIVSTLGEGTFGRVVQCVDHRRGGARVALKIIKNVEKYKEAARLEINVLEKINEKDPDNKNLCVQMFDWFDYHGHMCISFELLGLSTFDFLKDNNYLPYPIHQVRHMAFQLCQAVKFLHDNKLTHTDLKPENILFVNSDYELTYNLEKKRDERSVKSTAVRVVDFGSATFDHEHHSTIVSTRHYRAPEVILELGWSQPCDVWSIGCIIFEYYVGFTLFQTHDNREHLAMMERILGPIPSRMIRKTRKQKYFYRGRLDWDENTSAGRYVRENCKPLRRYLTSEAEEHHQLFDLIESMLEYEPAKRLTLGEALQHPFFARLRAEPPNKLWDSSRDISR
Dual specificity protein kinase CLK3, sequence (P49761 whole entry): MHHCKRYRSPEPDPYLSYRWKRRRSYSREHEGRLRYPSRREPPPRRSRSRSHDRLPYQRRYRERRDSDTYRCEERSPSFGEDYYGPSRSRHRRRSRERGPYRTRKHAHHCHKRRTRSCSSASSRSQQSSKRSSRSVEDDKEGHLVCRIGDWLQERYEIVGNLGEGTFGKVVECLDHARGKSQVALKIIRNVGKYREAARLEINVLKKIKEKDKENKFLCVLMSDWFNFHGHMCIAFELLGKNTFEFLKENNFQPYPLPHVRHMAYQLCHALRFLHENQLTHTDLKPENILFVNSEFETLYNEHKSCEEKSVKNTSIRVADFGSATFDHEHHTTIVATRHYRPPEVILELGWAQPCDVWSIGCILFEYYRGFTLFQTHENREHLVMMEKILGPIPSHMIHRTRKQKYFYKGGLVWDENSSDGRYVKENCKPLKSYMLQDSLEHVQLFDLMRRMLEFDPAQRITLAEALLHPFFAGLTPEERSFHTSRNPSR
Cyclin-dependent kinase 5/CDK5 activator 1, sequence (Q00535 whole entry): as the sequence (Q00535 whole entry) above
Cyclin-dependent kinase 5/CDK5 activator 1, sequence (Q15078 whole entry, further chain): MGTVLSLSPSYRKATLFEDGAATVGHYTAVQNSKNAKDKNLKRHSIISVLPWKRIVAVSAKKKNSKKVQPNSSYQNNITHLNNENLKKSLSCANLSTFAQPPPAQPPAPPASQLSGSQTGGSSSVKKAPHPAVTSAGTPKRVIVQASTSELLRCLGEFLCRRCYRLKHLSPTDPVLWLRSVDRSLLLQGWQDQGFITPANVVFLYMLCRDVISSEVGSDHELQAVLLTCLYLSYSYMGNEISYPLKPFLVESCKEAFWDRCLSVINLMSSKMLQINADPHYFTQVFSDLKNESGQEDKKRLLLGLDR

SMILES | IC50 [3] [nM] | IC50 [1] [nM] | IC50 [2] [nM] | IC50 [4] [nM] | IC50 [5] [nM] | IC50 [6] [nM] | IC50 [7] [nM] | IC50 [8] [nM] | IC50 [9] [nM] | IC50 [10] [nM] | IC50 [11] [nM] | IC50 [12] [nM] | IC50 [13] [nM] | IC50 [14] [nM] | IC50 [15] [nM] | IC50 [16] [nM] | IC50 [17] [nM] | IC50 [18] [nM] | IC50 [19] [nM] | IC50 [20] [nM]
COc1c(O)ccc2c(=O)c3c(O)cc4c(c3[nH]c12)C=CC(C)(C)O4 | 75 | 5300 | 9000 | 2000 | > 10000 | 170 | 210 | 90 | 1100 | 8200 | > 10000 | 820 | 8700 | 680 | 2300 | 220 | 350 | 1700 | 1200 | 710
CC1(C)C=Cc2c(cc(O)c3c(=O)c4cccc(O)c4[nH]c23)O1 [ATOLAPHYLLIDINE] | 2200 | > 10000 | > 10000 | > 10000 | > 10000 | ≥ 10000 |  |  |  |  |  |  |  |  |  |  |  |  |  | 

Further lines, with some results ahead:

IC50 [3] [nM] | SMILES | IC50 [1] [nM] | IC50 [2] [nM] | IC50 [4] [nM] | IC50 [5] [nM] | IC50 [6] [nM] | IC50 [7] [nM] | IC50 [8] [nM] | IC50 [9] [nM] | IC50 [10] [nM] | IC50 [11] [nM] | IC50 [12] [nM] | IC50 [13] [nM] | IC50 [14] [nM] | IC50 [15] [nM] | IC50 [16] [nM] | IC50 [17] [nM] | IC50 [18] [nM] | IC50 [19] [nM] | IC50 [20] [nM]
> 10000 | Cn1c2c(O)cccc2c(=O)c2c3c(c4c(c21)C=CC(C)(C)O4)C=C(O)C(C)(C)O3 | > 10000 | > 10000 | > 10000 | > 10000 | > 10000 |  |  |  |  |  |  |  |  |  |  |  |  |  | 
5700 | Cn1c2c(O)cccc2c(=O)c2c3occc3c3c(c21)C=CC(C)(C)O3 | > 10000 | > 10000 | > 10000 | > 10000 | 7000 |  |  |  |  |  |  |  |  |  |  |  |  |  | 
52 | O=C1Nc2cc(Br)ccc2/C1=C1/Nc2ccccc2/C1=N\O [6BIO] |  |  |  |  |  |  |  |  |  |  |  |  |  |  |  |  |  |  | 
